Measured values published in US20260137679A1, “GCN2 INHIBITOR FOR TREATING METASTASES” (HIBERCELL, INC., priority 2022, published 2026).

Experiments:
[1] = Spleen weight (splenomegaly) in 4T1 allografted mice; assay type: in vivo, mouse; details: especially at the activating 3 mg/kg dose level; 3 independent studies; FIG. 8B
Description: (§1) Lungs were perfused with PBS through the heart to remove as much blood as possible prior to collection. Spleens were collected and weighed. […] The remaining lungs were collected with remaining spleen in RPMI medium+5% FBS on ice for flow cytometry. Separate animals were enrolled for lung IHC analyses. Following euthanasia of these animals, lungs were inflated with 10% neutral buffered formalin prior to formalin fixation for 48 hours and paraffin embedding.

MDSCs and T-cells = experiment: Flow cytometry of single cell suspensions from spleens and lungs of 4T1 mice; assay type: in vivo, mouse
Text: Tissue processing for single cell suspensions: • Spleen: Spleens were mashed through wetted 70 μm nylon strainer using syringe plunger. Strainers were rinsed with RPMI+5% FBS. Cells were pelleted and RBCs lysed with ACK lysis buffer (Gibco) per manufacturer's instructions. Cells were resuspended in RPMI+5% FBS and counted prior to plating for staining. • Lungs: Lungs were homogenized and enzymatically digested using a Mouse Tumor Dissociation Kit (miltenyi) per manufacturer's instructions. Cells were resuspended in RPMI+5% FBS and counted prior to plating for staining. During the digestion at 37° C., brefeldin A (Biolegend) was included in the enzyme mix to prevent export of cytokines.
1E6 cells per sample were plated in 96 well plates and extracellular staining was performed per standard procedures. Following extracellular staining, cells were fixed and permeabilized using FoxP3/Transcription Factor Staining Buffer Kit (Tonbo) and intracellular staining was performed per standard procedures. The following antibodies were used.
Following staining, flow cytometry was performed on a Cytek Aurora cytometer and analyzed using FlowJo software.

S100A8 and S100A9 = S100A8 and S100A9 levels in PBMCs and plasma of 4T1 allografted mice; assay type: in vivo, mouse; details: FIG. 15C
[2] = system: BM-derived MDSCs / T-cells; experiment: Ex vivo co-culture of bone marrow-derived MDSCs with purified T-cells in tryptophan-depleted medium; assay type: cell-based, mouse; details: 0.1 μM HC-7366, 1:8 MDSCs:T-cells, FIG. 11B
Description: Single cell suspensions from mouse bone marrow were prepared. Cells were cultured in RPMI complete medium supplemented with GMCSF & IL6 (10 μg/mL) for 4 days to differentiate cells into PMN-MDSCs. T-cells were purified from mouse spleens with EasySep Mouse T-cell isolation kit per manufacturer's instructions Purified T-cells cells were then stained with CellTrace Violet dye (thermo) per manufacturer's instructions. Differentiated MDSCs and purified T-cells were co-cultured in tryptophan-depleted medium+/−HC-7366 (0.1 μM) for […], at a ratio of 1:8 MDSCs:T-cells. Proliferation of T-cells was measured by dilution of CTV via flow cytometry on a BD LSR Fortessa.

[3] = system: myeloid cells (immune gene transcripts); experiment: Quantigene gene expression analysis of tumors and spleens of 4T1 mice; assay type: in vivo, mouse; details: Day 21 of Tx, FIG. 9
Description: Mouse tumor and spleen tissues were snap frozen and stored in −80° C. freezer. The frozen tissue was soaked in 10× volume of the RNAlater®-ICE (ThermoFisher) at −20° C. for >16 hr. Then the tissue was transferred into M tube (Miltenyi Biotech) containing RLT lysis buffer (Qiagen) and homogenized by gentleMACS Dissociators with program of RNA_02 (Miltenyi Biotech). Total RNA was isolated from homogenized tissue using the RNeasy Plus Mini Kit (Qiagen) RNA concentration was determined by Epoch Microplate Spectrophotometer (Biotek).
A custom-made 77-plex mouse Immune QuantiGene Assay kit (ThermoFisher Scientific) using a bead-based multiplex assay were used to measure the expression of 69 immune genes, 4 stress genes plus 4 reference genes with Luminex xMAP 200 (ThermoFisher Scientific) according to the manufacturer's instructions.

[4] = system: ISR-induced amino acid biosynthesis proteins ASNS and PSAT1; experiment: IHC of ISR-induced proteins in lungs of 4T1 tumor-bearing mice; assay type: in vivo, mouse; details: 3 mg/kg HC-7366; 21 days post treatment initiation; FIG. 7B
Description: as §1
Multiple paraffin sections more than 200 μm apart were cut for each lung sample. Three sections were stained with H&E on Leica Autostainer while one adjacent section was immuno-stained for ASNS (Cell Signaling #92479) and PSAT1 (Proteintech #10501-1-AP) using the Bond Rx stainer (Leica Biosystems). Stained slides were digitized using Versa 200 slide scanner (Leica Biosystems). Images were analyzed using custom-written macros in ImageJ/FIJI (NIH) analyzing the relative proportion of tumor regions to the whole lung area. The tumor regions were transferred onto the images of immune-stained sections and intensities of ASNS and PSAT1 signals within these tumor regions were quantified. (Graphing and statistics were performed using Prism Graphpad).

primary 4T1 tumors = experiment: 4T1 orthotopic allograft, primary tumor volume; assay type: in vivo, mouse; details: PO, BID; three independent studies; FIG. 4
Text: (§2) 4T1 mouse breast cancer cell line was purchased from American Type Culture Collection (ATCC). Cells were free of human and animal pathogens as tested by h-IMPACT-I and IMPACT-III. Additionally, the genetic profile of the cells matched with the ECACC reference standard as tested by STR based DNA fingerprinting assay. Cells were maintained in RPMI 1640 with 10% FBS, and cultured up to 4 passages prior to implantation. Cells were harvested at ˜80% confluence, washed twice with RPMI 1640 without FBS and suspended in RPMI 1640 without FBS at 10×10^6 cells/mL for implantation.
(§3) Female Balb/c mice (7-8 week of age) were implanted into the right 4th mammary fat pad under Isoflurane anesthesia with 0.5×10^6 4T1 cells/mouse in a total volume of […] on Day 0 Animals were randomized into treatment groups when the average tumor volume reached 50-100 mm^3 on Day 6 post inoculation. Tumors were measured via caliper 2×/week. Tumor volume was calculated using the formula [tumor volume (mm^3)=π/6×length×width^2) Animals were sacrificed at either 7, 14, or 21 days post treatment via CO2 asphyxiation.

[5] = system: ISR-induced proteins (PSAT1, ATF4, TRIB3, ASNS); experiment: JESS measurement of ISR-induced proteins in primary 4T1 tumors; assay type: in vivo, mouse; details: 3 mg/kg HC-7366; 7 days post treatment initiation; FIG. 7C
Description: A small (lentil-sized) piece of frozen tumor was lysed in 500 μl of lysis buffer containing 2% SDS, 10% betamercaptoethanol, protease and phosphatase inhibitors (Roche, 04 693 159 001 and 04 906 837 001), and 1× Benzonase (Sigma, E1014-25KU). Each sample was homogenized using a polytron (PT 10-35 GT) for 30 seconds, and heated at 95° C. for 5 minutes. Protein concentrations were determined using a 660 nm Protein assay (Pierce, 22662), with the detergent compatibility reagent (Pierce, 22663), according to manufacturer instructions.
Protein samples were analyzed by JESS (ProteinSimple) using the 12-230 kDa separation module (ProteinSimple, SM-W004), and antibodies targeting PSAT1 (Proteintech, 10501-1-AP), ATF4 (AbCam, ab184909), TRIB3 (Proteintech, 66702-1), and ASNS (Proteintech, 14681-1-AP).

[6] = system: CD4 and CD8 T-cells, S100A8/S100A9 in CD11b+ cells; experiment: Multiplex imaging of FFPE lung samples from 4T1 allografted mice; assay type: in vivo, mouse
Description: Slides were cut from FFPE lung samples. Slides were deparaffinized, rehydrated and heat mediated antigen retrieval was conducted with AR6 buffer (Akoya). Slides were blocked with Roche diagnostics antibody diluent (Fisher) and stained with primary antibodies for 1 hr at 110 rpm. HRP-conjugated secondary antibodies were added for 10 mins at 110 rpm followed by 10 mins with OPAL detection dye (Akoya). For multiplex staining, this process was repeated starting at the antigen retrieval stage. Multispectral Images were captured on the Polaris imaging system (Akoya) and spectral unmixing and cell segmentation was performed using Inform Tissue Finder software (Akoya). Imaging data was converted into .csv files and imported into Flowjo for immune phenotyping.
Primary antibodies used were rat anti-mouse CD4 (clone 4SM95, Thermo 14-9766-82-82, paired with Opal 620), rabbit anti-mouse Ki67 (clone SP6, Thermo MA5-14520, paired with Opal 780), rabbit anti-mouse CD8a (clone D4W2Z, Cell Signaling 98941, paired with Opal 520). Rabbit anti-mouse S1008A (Polyclonal, Proteintech 15792-1-AP, paired with Opal 520), rabbit anti-mouse S1009A (Polyclonal, Proteintech 26992-1-AP, paired with Opal 570), rabbit anti-mouse CD11b (clone EPR1344, Abcam 133357, paired with Opal 690).

[7] = system: 4T1 mouse breast cancer cell line; experiment: 4T1 murine orthotopic allograft tumor model, lung metastases (H&E analysis); assay type: in vivo
Text: as §2, §3, §1
Multiple paraffin sections more than 200 μm apart were cut for each lung sample. […] Images were analyzed using custom-written macros in ImageJ/FIJI (NIH) analyzing the relative proportion of tumor regions to the whole lung area. The tumor regions were transferred onto the images of immune-stained sections and intensities of ASNS and PSAT1 signals within these tumor regions were quantified. […]

[8] = 3 mg/kg HC-7366, Day 14, FIGS. 10B-10C
[9] = 4T1 allografted mice, FIGS. 15A-15B
[10] = greater in metastatic lesions than in normal tissue, FIGS. 12E-12F

For `CNC(=O)c1ncn2cc(-c3c(F)ccc(NS(=O)(=O)c4cc(Cl)cnc4OC)c3F)ncc12` [HC-7366, 6-(3-((5-chloro-2-methoxypyridine)-3-sulfonamido)-2,6-difluorophenyl)-N-methylimidazo[1,5-a]pyrazine-1-carboxamide], the “splenomegaly (spleen weight)” value [1] was “significantly decreases splenomegaly”, the “CD86 on MDSCs in the spleen and lungs” value (MDSCs and T-cells; [8]) was “significantly increased” and the “MHCII on MDSCs in the spleen and lungs” value (MDSCs and T-cells; [8]) was “significantly increased”. The “CD98 expression on CD8 T-cells in the lungs” value (MDSCs and T-cells; 3 mg/kg HC-7366, FIG. 14A) was “not on CD8 T-cells”, the “CD98 expression on MDSCs in the lungs” value (MDSCs and T-cells; 3 mg/kg HC-7366, FIG. 14A) was “significantly increased” and the “CD98 expression on MDSCs and CD8 T-cells in the spleen” value (MDSCs and T-cells; 3 mg/kg HC-7366, both cell subsets, FIG. 14B) was “increased CD98 expression”. The “MDSC frequency in spleens and lungs” value (MDSCs and T-cells; 3 mg/kg HC-7366, both organs, FIG. 10A) was “significantly reduced”, the “activation markers of CD4 and CD8 T-cells in lungs (intracellular flow cytometry)” value (MDSCs and T-cells; Day 21 of Tx, FIGS. 13A-13B) was “significantly increased activation markers” and the “activation markers of CD4 and CD8 T-cells in spleens (intracellular flow cytometry)” value (MDSCs and T-cells; Day 21 of Tx, FIGS. 13C-13D) was “not in spleens”. The “S100A8 and S100A9 levels in PBMCs” value (S100A8 and S100A9) was “significant reductions”, the “S100A8 and S100A9 levels in plasma” value (S100A8 and S100A9) was “significant reductions” and the “T-cell proliferation in the presence of BM-derived MDSCs (CTV dilution)” value [2] was “significantly rescued T-cell proliferation”. For the same molecule, the “gene expression in MDSC-enriched spleens” value ([3]; 3 mg/kg HC-7366) was “consistent increases in immune activation transcripts and reductions in inhibitory transcripts”, the “gene expression in tumor tissue” value [3] was “did not show consistent effects” and the “ASNS expression in lungs (IHC)” value [4] was “Significant increases”. The “PSAT1 expression in lungs (IHC)” value [4] was “Significant increases”, the “efficacy on primary 4T1 tumors (tumor volume)” value (primary 4T1 tumors) was “little to no efficacy” and the “ASNS protein in primary 4T1 tumors (JESS)” value [5] was “Increases”. For the same molecule, the “ATF4 protein in primary 4T1 tumors (JESS)” value [5] was “Increases”, the “PSAT1 protein in primary 4T1 tumors (JESS)” value [5] was “Increases” and the “TRIB3 protein in primary 4T1 tumors (JESS)” value [5] was “Increases”. The “S100A8 and S100A9 levels in lung metastases” value [6, 9] was “significant reductions”, the “S100A8 and S100A9 levels in normal lung tissue” value [6, 9] was “significant reductions” and the “CD8 T-cells in metastatic lesions of lung” value ([6]; HC-7366 treated 4T1 allografted mice, FIG. 12C) was “significantly increased”. For the same molecule, the “CD8 T-cells in normal lung tissue” value ([6]; HC-7366 treated 4T1 allografted mice, increase compared with that in metastatic lesions, FIG. 12D) was “to a lesser degree”, the “Ki67 expression of CD4 T-cells in lung” value [6, 10] was “significantly increased Ki67 expression” and the “Ki67 expression of CD8 T-cells in lung” value [6, 10] was “significantly increased Ki67 expression”. The “overall metastatic area in lung samples” value ([7]; 30 mg/kg HC-7366, 4T1 allografted mice, FIGS. 1A-1B) was “significant reduction in overall metastatic area”, the “anti-metastatic effect in lungs of tumor bearing mice” value ([7]; 1-3 mg/kg HC-7366, PO, BID, lungs collected 21 days after treatment initiation, FIGS. 5A-5C) was “consistent anti-metastatic effect” and the “number of lung metastases” value ([7]; combination therapy of HC-7366 with anti-PD-1 therapy, FIG. 2) was “significant reduction in the number of lung metastases”.
